Assay results taken from US20120238491A1, “IMMUNOLOGICALLY ACTIVE LIPOPEPTIDES AND METHODS FOR USE THEREOF” (THERIMUNEX PHARMACEUTICALS, INC., priority 2009, published 2012).

How the values were obtained:
[1] = test system: IL-8 mRNA; experiment: IL-8 mRNA expression in human fibroblasts; type: cell-based
Description: (§1) mRNA Expression Experiments. Normal primary human fibroblasts obtained from the Coriell Institute (Camden, N.J.) were cultured in 70 mm dishes in DMEM supplemented with 10% FBS and 1× penicillin/streptomycin at 37° C. and 5% CO2. Human fibroblasts were incubated in the presence of the serum fractions, compound pDAG, the peptide moiety of pDAG, or diacylglycerol. In the initial experiments we examined the differences between fibroblasts treated with the various serum fractions, synthetic pDAG (the peptide moiety from pDAG or diacylglycerol), fibroblasts treated with LPS as a positive control, and fibroblasts without treatment. The culture medium was stored at −80° C. for ELISA of the excreted cytokine proteins (see below). Total RNA from fibroblasts was extracted using the RNeasy Mini kit (Qiagen, Valencia, Calif.) according to the manufacturer's protocol. To verify the expression of transcripts; 2.0 μg of total RNA was reverse-transcribed using Super-script-III reverse transcriptase (Invitrogen, Carlsbad Calif.), according to the manufacturer's protocol. Transcripts were quantified using SYBR Green PCR amplification (Perkin Elmer, Waltham Mass.). Primers employed in these studies are outlined in Table 6, below. All transcripts were normalized to β-actin. Briefly, 0.4 μg/μL of cDNA was tested with 10 μM of each specific primer and 1× SYBR Green in a total volume of 20 uL.
(§2) Lipofection Studies. Cells were cultured so that at the time of transfection they were 50-80% confluent. […] PLUS reagent (0.5 μL) and lipofectamine (1 μL) were then added to the peptide Opti-MEM solution, vortexed and incubated at room temperature for 30 min. Five hundred microliters of complete DMEM was added to the fibroblasts and 0.6 μL of the peptide/lipofectamine was added and allowed to incubate overnight. RNA was extracted and processed as described above.
Bioassays. The fractions generated from dialysis (methanol/chloroform soluble, methanol/chloroform insoluble, dialysis retentate, and the fractions collected from reversed phase HPLC) were taken to dryness by lyophilization. […]

[2] = test system: IL-18 mRNA; experiment: IL-18 mRNA expression in human fibroblasts; type: cell-based
Description: as §1, with “Therefore we speculated that the diacylglycerol moiety enabled the peptide to cross the cell membrane. To test this hypothesis and to ascertain the biological role of the diacylglycerol moiety in compound pDAG, if any, the peptide moiety transfected into human fibroblasts or diacylglycerol alone were evaluated by measuring the expression of mRNA” for “mRNA”, “(IL-1, IL-6, IL-8, IL-18, and IL-33). […] Diacylglycerol could stimulate mRNA expression of IL-33 and IL-18, but not IL-1 in fibroblasts. […]” for “Expression Experiments.”, “uL. Lipofection Studies. Cells were cultured so that at the time of transfection they were 50-80% confluent. Five microliters of the stock peptide moiety from pDAG was diluted in Opti-MEM Reduced Serum Medium to give a final concentration of 5 μg/mL. PLUS reagent (0.5 μL) and lipofectamine (1 μL) were then added to the peptide Opti-MEM solution, vortexed and incubated at room temperature for 30 min. Five hundred microliters of complete DMEM was added to the fibroblasts and 0.6 μL of the peptide/lipofectamine was added and allowed to incubate overnight. RNA was extracted and processed as described above.” for “uL.”

[3] = test system: MCP-1 mRNA; experiment: MCP-1 mRNA expression in human fibroblasts; type: cell-based; conditions: for MCP-1 expression in fibroblasts (in words): peptide transfected; for MCP-1 mRNA increase: relative to -actin
Description: as §1
(§3) Bioassays. The fractions generated from dialysis (methanol/chloroform soluble, methanol/chloroform insoluble, dialysis retentate, and the fractions collected from reversed phase HPLC) were taken to dryness by lyophilization. The freeze-dried solids were weighed and dissolved in the appropriate volume of deionized water to give a final concentration of 1 mg/mL and assayed for mRNA expression (IL-6, IL-8, MIP1α, and MIP1β) in human fibroblasts.

[4] = test system: human fibroblasts; experiment: Inflammatory cytokine and chemokine production by human fibroblasts (overall stimulation); type: cell-based
Description: as §1
as §2, with “overnight.” for “overnight. RNA was extracted and processed as described above.”

[5] = test system: IL-1 mRNA; experiment: IL-1 mRNA expression in human fibroblasts; type: cell-based
Description: as §1, with “Therefore we speculated that the diacylglycerol moiety enabled the peptide to cross the cell membrane. To test this hypothesis and to ascertain the biological role of the diacylglycerol moiety in compound pDAG, if any, the peptide moiety transfected into human fibroblasts or diacylglycerol alone were evaluated by measuring the expression of mRNA” for “mRNA”, “(IL-1, IL-6, IL-8, IL-18, and IL-33). […] Diacylglycerol could stimulate mRNA expression of IL-33 and IL-18, but not IL-1 in fibroblasts. […]” for “Expression Experiments.”, “uL. Lipofection Studies. Cells were cultured so that at the time of transfection they were 50-80% confluent. Five microliters of the stock peptide moiety from pDAG was diluted in Opti-MEM Reduced Serum Medium to give a final concentration of 5 μg/mL. […]” for “uL.”

[6] = test system: IL-6 mRNA; experiment: IL-6 mRNA expression in human fibroblasts; type: cell-based; conditions: for IL-6 mRNA elevation relative to a -actin control: 24 hours, p<0.05; for IL-6 mRNA expression increase relative to untreated control: 24 h, normalized to -actin (FIG. 1)
Description: as §1, §2, §3

[7] = test system: MIP-1 mRNA; experiment: MIP-1 mRNA expression in human fibroblasts; type: cell-based; conditions: for MIP-1α expression in fibroblasts (in words): peptide transfected; for MIP-1 mRNA expression increase: natural pDAG 1:100 dilution, relative to -actin
Description: as §1, §3

[8] = test system: IL-33 mRNA; experiment: IL-33 mRNA expression in human fibroblasts; type: cell-based
Description: Therefore we speculated that the diacylglycerol moiety enabled the peptide to cross the cell membrane. To test this hypothesis and to ascertain the biological role of the diacylglycerol moiety in compound pDAG, if any, the peptide moiety transfected into human fibroblasts or diacylglycerol alone were evaluated by measuring the expression of mRNA (IL-1, IL-6, IL-8, IL-18, and IL-33). […] Diacylglycerol could stimulate mRNA expression of IL-33 and IL-18, but not IL-1 in fibroblasts. […] Normal primary human fibroblasts obtained from the Coriell Institute (Camden, N.J.) were cultured in 70 mm dishes in DMEM supplemented with 10% FBS and 1× penicillin/streptomycin at 37° C. and 5% CO2. Human fibroblasts were incubated in the presence of the serum fractions, compound pDAG, the peptide moiety of pDAG, or diacylglycerol. In the initial experiments we examined the differences between fibroblasts treated with the various serum fractions, synthetic pDAG (the peptide moiety from pDAG or diacylglycerol), fibroblasts treated with LPS as a positive control, and fibroblasts without treatment. The culture medium was stored at −80° C. for ELISA of the excreted cytokine proteins (see below). […] Transcripts were quantified using SYBR Green PCR amplification (Perkin Elmer, Waltham Mass.). […]

[9] = Lability to hydrolysis; type: physicochemical; conditions: acidic and basic conditions
Description: The C8 RP-HPLC peaks eluting between 4.83 and 9.36 min. in a non-purified fraction containing compound pDAG are hydrolysis products of compound pDAG. Therefore, the classical degradation approach to natural product structure elucidation was used. The purified compound pDAG (as a tryptophan complex) was subjected to mild acid hydrolysis, in situ N-terminal sulfonation, and analysis of the hydrolysis products to identify peptide fragments that would account for the entire structure of pDAG.
Hydrolysis and Derivatization of the Natural Product (pDAG). […] Therefore, […] of native pDAG was subjected to mild acid hydrolysis conditions (1 N HCl in phosphate buffered saline) for 18 hours at 25° C. The post-reaction buffer salts were removed using a C18 spin column (ThermoFisher Scientific) and the hydrolysis products were eluted from the column using 50% CH3CN/0.1% TFA. The final product was brought to dryness by evaporation in vacuo at 4° C. The hydrolysis products were derivatized using the N-terminal sulfonation reagent, 4-sulfophenylisothiocyanate, and analyzed in situ by MALDITOF in an -cyano-4-hydroxycinnamic acid matrix using the method described by Wang. See Wang, D.; Kalb, S. R.; Cotter, R. J. Rapid Commun. Mass Spectrom. 2004, 18, 96-102.

[10] = test system: IgM production; experiment: Administration to rabbits, adjuvant effect on IgM production; type: in vivo; conditions: administered with other drugs
[11] = test system: HBV; experiment: HBV viral load in hepatocytes; type: cell-based; conditions: 25 to 400 ng/ml
[12] = test system: established bacterial and viral infections; experiment: Administration to dogs, survival rate; type: in vivo; conditions: various amounts
[13] = test system: C. pneumonia; experiment: C. pneumonia load in THP-1 cells; type: cell-based; conditions: 25 ng/ml and 50 ng/ml
Excerpt: The pDAG produced in accordance with the invention is believed to induce fibroblast IL-6 expression similar to that of the natural product, and to induce fibroblast IL-8 mRNA and protein expression, to increase MCP-1 expression and to induce MIP-1alpha.

[14] = test system: established bacterial and viral infections; experiment: Administration to cows, number of white blood cells; type: in vivo; conditions: various amounts
[15] = test system: IL-8 protein; experiment: ELISA for secreted IL-8 protein from human fibroblasts; type: cell-based; conditions: 0.3 to 3 ng/mL
Description: Fibroblasts were treated with various concentrations of synthetic pDAG for 24 hours; the media were reserved for ELISA assays of IL-6 and IL-8, and mRNA was extracted from the cells to measure all four cytokines IL-6 mRNA was elevated 20% in response to synthetic pDAG and 40% with natural pDAG relative to a -actin control (p<0.05). […] Compound pDAG induced IL-8 expression by about 5-fold compared to untreated fibroblasts, in dose-response studies (FIG. 2). […] The MCP-1 and MIP-1 mRNA expression in human fibroblasts incubated with approximately equivalent amounts of natural pDAG (1:100 dilution) and synthetic pDAG (3 ng/mL). Both synthetic pDAG and the natural product induced a 3-fold increase in MCP-1 mRNA relative to the -actin control and increased MIP-1α mRNA expression relative to -actin by 15% (FIG. 3).
ELISA for IL-8 Protein. Human IL-8 was measured by ELISA according to the manufacturer's specifications (eBioscience San Diego, Calif.) in the supernatants of fibroblasts cultured in complete DMEM with varying amounts of pDAG. Briefly, high affinity binding plates were coated with anti-human IL-8 overnight at 4° C. Wells were washed with Wash Buffer five times at 1 min. each wash and blocked with Assay Diluent for 60 min. at room temp. […] The reaction was halted with Stop Solution and the plate read at 450 nm with wavelength subtraction at 570 nm.

[16] = transfected peptide 10 ng/mL (~3 nM)
[17] = increasing concentrations of synthetic pDAG

acALYDKGYTSKEQKDCVGI [peptide moiety of pDAG]
IL-8 mRNA vs untreated or lipofectamine-only fibroblasts [1, 16]: substantially increased | IL-18 mRNA vs untreated or lipofectamine-only fibroblasts [2, 16]: substantially increased | increase in IL-18 mRNA expression ([2]; transfected peptide, ~10 nM): > 3 fold | MCP-1 expression in fibroblasts (in words) [3]: increased expression | fold higher concentration than pDAG needed for comparable responses ([4]; peptide moiety, not transfected): 1,000 fold | IL-1 mRNA vs untreated or lipofectamine-only fibroblasts [5, 16]: substantially increased | IL-6 mRNA vs untreated or lipofectamine-only fibroblasts [6, 16]: substantially increased | MIP-1α expression in fibroblasts (in words) [7]: increased expression | IL-33 mRNA vs untreated or lipofectamine-only fibroblasts [8, 16]: substantially increased

1-peptidyl-2-arachidonoyl-3-stearoyl glyceride [natural pDAG]
MCP-1 mRNA increase ([3]; natural pDAG 1:100 dilution): 3 fold | lability to hydrolysis ([9]; listed as Native pDAG): labile to acid hydrolysis | lability to hydrolysis ([9]; listed as serum-derived compound pDAG): especially labile to hydrolysis | IL-6 mRNA elevation relative to a -actin control [6]: 40% | IL-6 mRNA expression increase relative to untreated control ([6]; natural pDAG 1:100 dilution): ~30% | MIP-1 mRNA expression increase [7]: ~60% | MIP-1 mRNA expression increase ([7]; listed as natural product): 15%

CCCCC/C=C\C/C=C\C/C=C\C/C=C\CCCC(=O)O[C@@H](CO)COC(=O)CCCCCCCCCCCCCCCCC [diacylglycerol, 1-stearoyl-2-arachidonoyl-sn-glycerol, reference compound]
increase in IL-18 mRNA expression ([2]; diacylglycerol alone, ~30 nM): 20%

1-peptidyl-2-arachidonoyl-3-stearoyl glyceride [pDAG]
adjuvant effect in terms of IgM production [10]: significant adjuvant effect | HBV viral load [11]: reduction of HBV viral load | IL-8 expression induction compared to untreated fibroblasts ([1]; dose-response studies (FIG. 2), 24 hours): about 5 fold | IL-8 mRNA expression dose response [1, 17]: negative dose response | survival rate compared with untreated dogs [12]: over doubling the survival rate | induction of IL-18 [2]: found to induce | MCP-1 expression in fibroblasts (in words) [3]: increased expression | MCP-1 mRNA increase ([3]; synthetic pDAG 3 ng/mL): 3 fold | C. pneumonia load [13]: reduction of C. pneumonia load | reduction of the number of white blood cells [14]: nearly threefold | EC99 (apparent / possible maximum effective concentration) ([4]; pDAG, human fibroblasts, cytokine and chemokine production): 3 ng/mL | EC99 ([4]; pDAG, signaling in human fibroblasts): ~1 nM | induction of IL-1alpha [5]: found to induce | induction of IL-1beta [5]: found to induce | concentration giving maximal effect (EC99) on secreted IL-8 ([15]; ELISA, 24 hours): 3 ng/mL | secreted IL-8 protein dose response [15, 17]: positive linear dose response | IL-6 mRNA elevation relative to a -actin control ([6]; listed as synthetic pDAG): 20% | IL-6 mRNA expression increase relative to untreated control ([6]; synthetic pDAG 5 ng/mL): ~30% | MIP-1α expression in fibroblasts (in words) [7]: increased expression | induction of IL-33 [8]: found to induce
